The values that follow come from patent US12509438B2, “Pyrazole derivative” (Aptabio Therapeutics Inc., priority 2020, dated 2025).

Molecules are shown by their SMILES.

The subject of assay [1] is LX-2 cells. The assay is described as follows: ROS production in LX-2 cells (L-012 or DCF-DA). As to conditions: FIG. 1. It is filed as cell-based, human. The text has this: (§1) In order to confirm an effect of the synthetic example compounds on ROS production from fibroblasts and specific substrate cells, ROS production was induced by stimulation of PMA (phorbol 12-myristate 13-acetate), TGF-β1, palmitate or high concentration-glucose, or the like for HL-60 cells (Korean Cell Line Bank), NHLF(normal human lung fibroblast, Lonza), LX-2 (human hepatic stellate cells, Sigma), ARPE19 (human retinal pigment epithelial cell, ATCC), KEL-FIB (Keloid fibroblast, ATCC) cells differentiated into neutrophil cells by treatment of DMSO, and the inhibitory effect of ROS production of the synthetic example compounds was observed under this condition.
(§2) NHLF (normal human lung fibroblast, Lonza), LX-2 (human hepatic stellate cells, Sigma), ARPE19 (human retinal pigment epithelial cell, ATCC), KEL-FIB (keloid fibroblast, ATCC) cells were suspended in a culture medium comprising 10% FBS and aliquoted in a 96 well plate, and then cultured under the condition of 5% CO2, 37° C. for 24 hours. The synthetic example compound was pretreated from 30 minutes to 1 hour, and then a ROS stimulus was treated to each well comprising cells and a drug. After additional culturing for 48 hours, the level of ROS production was confirmed by using L-012 or DCF-DA.

In assay [2] the test system is NHLF cells. The assay is described as follows: ROS production in NHLF cells (L-012 or DCF-DA). It is filed as cell-based, human. As to conditions: FIG. 1.
Excerpt: as §1, §2

The subject of assay [3] is αSMA. The assay is described as follows: Expression of αSMA induced by TGF-β1 in ARPE19 cells (immunocytochemistry). As to conditions: compound 5 μM, TGF-β1 10 ng/ml, FIG. 3a/3b. It counts as cell-based, human. The text has this: (§3) In order to confirm whether the synthetic example compound of the present invention affects differentiation of fibroblasts into myofibroblasts, the inhibitory effect of the synthetic example compound for increasing expression of αSMA (a biomarker for confirming differentiation into myofibroblasts) induced by TGF-β1 for HL-60 cells (Korean Cell Line Bank), HFF-1 (human foreskin fibroblast, ATCC), NHLF (normal human lung fibroblast, Lonza), LX-2 (human hepatic stellate cells, Sigma), ARPE19 (human retinal pigment epithelial cell, ATCC), KEL-FIB (Keloid fibroblast, ATCC) cells was to be observed.
Each cell was suspended in a DMEM medium comprising 10% FBS and aliquoted on a 4-well chamber slide (Nunc) at a concentration of 1×10^4 cells/well, and the synthetic example compound and TGF-β1(TGF 131, TGF-β are all same meanings) were treated to prepare cells to be used for confirmation of αSMA expression. […] After performing fixation with 4% paraformaldehyde for 10 minutes and permeabilization using 0.1% Triton x-100 for the cells, the process of treating a primary antibody (anti-αSMA Ab, 1:200, at 4° C. for 16 hours) and a secondary antibody (Alexa-594 conjugated Ab, 1:800, at a room temperature for 1 hour) against αSMA was progressed sequentially, and then the level of expression of αSMA was observed by using a fluorescence microscope. […]

Assay [4] has as its system αSMA. As to the kind of experiment: Expression of αSMA induced by TGF-β1 in HFF-1 cells (immunocytochemistry). It is filed as cell-based, human. Particulars: compound 5 μM, TGF-β1 10 ng/ml, FIG. 3a/3b.
Excerpt: as §3
(§4) Each cell was suspended in a DMEM medium comprising 10% FBS and aliquoted on a 4-well chamber slide (Nunc) at a concentration of 1×10^4 cells/well, and the synthetic example compound and TGF-β1(TGF 131, TGF-β are all same meanings) were treated to prepare cells to be used for confirmation of αSMA expression. […] After performing fixation with 4% paraformaldehyde for 10 minutes and permeabilization using 0.1% Triton x-100 for the cells, the process of treating a primary antibody (anti-αSMA Ab, 1:200, at 4° C. for 16 hours) and a secondary antibody (Alexa-594 conjugated Ab, 1:800, at a room temperature for 1 hour) against αSMA was progressed sequentially, and then the level of expression of αSMA was observed by using a fluorescence microscope.

In assay [5] the test system is αSMA. The assay is described as follows: Expression of αSMA induced by TGF-β1 in LX-2 cells (immunocytochemistry). It is filed as cell-based, human. As to conditions: compound 5 μM, TGF-β1 10 ng/ml, FIG. 3a/3b.
Excerpt: as §3, §4

Assay [6] deals with αSMA. As to the kind of experiment: Expression of αSMA induced by TGF-β1 in NHLF cells (immunocytochemistry). It counts as cell-based, human. Particulars: compound 5 μM, TGF-β1 10 ng/ml, FIG. 3a/3b.
Excerpt: as §3, §4

Assay [7] has as its system αSMA. The assay is described as follows: Expression of αSMA induced by TGF-β1 in KEL-FIB cells (immunocytochemistry). It is filed as cell-based. As to conditions: compound 5 μM, TGF-β1 10 ng/ml, FIG. 3a/3b.
Excerpt: as §3, §4

Assay [8] has as its system N27 cells. As to the kind of experiment: ROS production induced by MPP+ in N27 dopaminergic nerve cells (DCF-DA). It is filed as cell-based, rat. As to conditions: compound 1 μM, 24 hours, FIG. 4. The text has this:
The high ROS level in nerve cells induces oxidized lipids, and this is known as an important element for nerve cell death. In order to confirm the effect of the synthetic example compound on ROS production from dopaminergic nerve cells, ROS production was induced by stimulation of MPP+(1-methyl-4-phenylptridinium) for N27 (rat dopaminergic neural cell, Sigma) cells, and the inhibitory effect of ROS production of the synthetic example compound was observed under this condition.
N27 cells were cultured in a RPMI medium comprising 10% FBS, […], and the cultured cells were aliquoted in a 6 well plate at a concentration of 5×10^3˜6×10^3 cells/well. The ROS production stimuli, MPP+ (1-methyl-4-phenylptridinium) and Synthetic example compound 3 (1 μM) were treated into the cells. In 24 hours after treating the synthetic example compound, by measuring fluorescence of each well using DCF-DA, the ROS production level was confirmed.

Assay [9] concerns CTGF gene. The assay is described as follows: CTGF gene expression induced by TGF-β1 in KEL-FIB keloid fibroblasts (qRT-PCR). It counts as cell-based. As to conditions: KEL-FIB cells; 5 μM or 10 μM compound; 2 ng/ml TGF-β1; 24 or 48 hours. As for the experimental part:
(§5) In order to confirm the effect on the process of producing extracellular matrix from keloid fibroblasts of the synthetic example compound, the expression change of an extracellular matrix formation promoting factor, CTGF and a representative extracellular matrix, collagen type I according to treatment of the Synthetic example 3 compound for KEL-FIB (keloid fibroblast) cells was analyzed at a gene level.
(§6) The KEL-FIB cell line was adapted in a DMEM comprising 2% FBS for 24 hours and then the Synthetic example 3 compound at a concentration of ? 5 μM or 10 μM was pretreated for 1 hour. For inducing expression of CTGF and collagen type I genes, 2 ng/ml TGF-β1 was treated and mRNA was extracted from the cells after 24 or 48 hours. The presence of mRNA and expression level of CTGF and collagen type 1 genes were confirmed by qRT-PCR (Quantitative real-time PCR).
(Quantitative PCR measures a nucleic acid by following its amplification.)

Assay [10] relates to collagen type I gene. As to the kind of experiment: Collagen type I gene expression induced by TGF-β1 in KEL-FIB keloid fibroblasts (qRT-PCR). It counts as cell-based. Particulars: KEL-FIB cells; 5 μM or 10 μM compound; 2 ng/ml TGF-β1; 24 or 48 hours. As to the method: as §5, §6
Assay [11] relates to IL-1β. The assay is described as follows: Expression of IL-1β induced by LPS in LX-2 cells (RT-PCR). It is filed as cell-based, human. As to conditions: 30 min pretreatment, LPS 6 hours, FIG. 5. As to the method: (§7) After inoculating a 2×10^5 number of cells in a 6 well plate and culturing for 24 hours and then further culturing in a culture solution without serum for 16 hours, the Synthetic example 3 compound was pretreated according to each condition for 30 minutes and inflammation reaction was induced by LPS for 6 hours. The expression of IL-1β was confirmed by using RT-PCR. The total RNA was separated from the cells by using RNeasy mini kit (Qiagen) and from the separated RNA 2 ug, cDNA was synthesized by using PrimeScript™ II 1st strand cDNA synthesis kit (TaKaRa) and then PCR was performed by AccuPower® PCR PreMix (Bioneer) to amplify genes. The sequence for target primers is as follows. IL-1β (forward: 5′-[…]-3′, reverse: 5′-[…]-3′); GAPDH (forward: 5′-[…]-3′, reverse: 5′-[…]-3′); β-actin (forward: 5′-[…]-3′, reverse: 5′-[…]-3′). The PCR product was confirmed by electrophoresis in 1.5% agarose gel.

Assay [12] relates to IL-1β. As to the kind of experiment: Expression of IL-1β induced by LPS in NHLF cells (RT-PCR). It is filed as cell-based, human. Particulars: 30 min pretreatment, LPS 6 hours, FIG. 5. As to the method:
as §7

In the case of `Oc1c2c(nn1-c1ccccn1)CN(Cc1ccccc1)CC2` [Synthetic example 3, 6-benzyl-2-(pyridin-2-yl)-4,5,6,7-tetrahydro-2H-pyrazolo[3,4-c]pyridin-3-ol], the “inhibition of ROS production induced by PMA” value in [1] and in assay [2] was “inhibited ROS production” in each case. The “inhibition of increase of expression of αSMA induced by TGF-β1” value in [3], in assay [4], in assay [5], in assay [6] and in [7] was “significantly inhibited” each time. For the same compound, the “inhibition of ROS production induced by MPP+” value in assay [8] was “inhibiting production of ROS”. Also, in [9], the “inhibition of expression of the CTGF gene” value is on record as 76%. Besides, in assay [10], the “inhibition of expression of the collagen type I gene” value is recorded as 75%. Further, the “inhibition of IL-1β induced by LPS” value in assay [11] and in assay [12] was “effectively inhibited in a concentration-dependent manner” in each case.
